ChEMBL document CHEMBL1909046, “DrugMatrix in vitro pharmacology data”

How the values were obtained:
[1] = target: T1, 5-hydroxytryptamine receptor 2C (Homo sapiens, UniProt P28335); assay: DRUGMATRIX: Serotonin (5-Hydroxytryptamine) 5-HT2C radioligand binding (ligand: [3H] Mesulergine); format: cell membranes, CHO-K1, Membrane; conditions: cho-k1; Not Active = under 50% inhibition at 10 µM
T1 sequence (P28335 whole entry): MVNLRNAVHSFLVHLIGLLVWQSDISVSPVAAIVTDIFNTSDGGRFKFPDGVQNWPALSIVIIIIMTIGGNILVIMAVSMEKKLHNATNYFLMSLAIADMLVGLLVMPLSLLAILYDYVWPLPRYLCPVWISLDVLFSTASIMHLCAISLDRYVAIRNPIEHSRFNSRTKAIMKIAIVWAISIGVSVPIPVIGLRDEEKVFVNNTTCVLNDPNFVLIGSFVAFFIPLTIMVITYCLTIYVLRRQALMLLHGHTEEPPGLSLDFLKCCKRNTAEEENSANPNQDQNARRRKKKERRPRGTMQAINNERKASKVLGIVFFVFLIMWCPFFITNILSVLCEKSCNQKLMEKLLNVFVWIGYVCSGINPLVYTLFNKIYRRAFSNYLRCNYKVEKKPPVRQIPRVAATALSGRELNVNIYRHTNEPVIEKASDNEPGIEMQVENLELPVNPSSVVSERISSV

[2] = target: T2, Muscarinic acetylcholine receptor M2 (Homo sapiens, UniProt P08172); format: cell membranes, CHO-K1, Membrane; conditions: cho-k1; note: in other assays of this panel Not Active means under 50% inhibition at 10 µM
T2 sequence (P08172 whole entry): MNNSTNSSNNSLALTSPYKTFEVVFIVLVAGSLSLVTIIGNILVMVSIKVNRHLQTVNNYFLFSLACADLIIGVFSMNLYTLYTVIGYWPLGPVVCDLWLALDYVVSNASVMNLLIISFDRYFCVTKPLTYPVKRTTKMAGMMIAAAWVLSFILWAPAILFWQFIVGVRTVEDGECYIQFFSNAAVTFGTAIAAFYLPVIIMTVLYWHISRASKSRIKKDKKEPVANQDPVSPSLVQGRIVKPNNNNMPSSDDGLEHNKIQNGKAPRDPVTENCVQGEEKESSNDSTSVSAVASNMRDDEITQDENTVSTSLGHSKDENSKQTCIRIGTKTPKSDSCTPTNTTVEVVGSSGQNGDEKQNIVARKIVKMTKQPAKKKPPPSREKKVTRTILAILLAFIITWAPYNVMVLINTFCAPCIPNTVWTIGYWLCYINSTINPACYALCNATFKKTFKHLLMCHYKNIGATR

Cytochrome P450 2C9 = Cytochrome P450 2C9 (Homo sapiens, UniProt P11712); conditions: bti-tn-5b1-4; note: in other assays of this panel Not Active means under 50% inhibition at 10 µM
Sequence of Cytochrome P450 2C9 (P11712 whole entry): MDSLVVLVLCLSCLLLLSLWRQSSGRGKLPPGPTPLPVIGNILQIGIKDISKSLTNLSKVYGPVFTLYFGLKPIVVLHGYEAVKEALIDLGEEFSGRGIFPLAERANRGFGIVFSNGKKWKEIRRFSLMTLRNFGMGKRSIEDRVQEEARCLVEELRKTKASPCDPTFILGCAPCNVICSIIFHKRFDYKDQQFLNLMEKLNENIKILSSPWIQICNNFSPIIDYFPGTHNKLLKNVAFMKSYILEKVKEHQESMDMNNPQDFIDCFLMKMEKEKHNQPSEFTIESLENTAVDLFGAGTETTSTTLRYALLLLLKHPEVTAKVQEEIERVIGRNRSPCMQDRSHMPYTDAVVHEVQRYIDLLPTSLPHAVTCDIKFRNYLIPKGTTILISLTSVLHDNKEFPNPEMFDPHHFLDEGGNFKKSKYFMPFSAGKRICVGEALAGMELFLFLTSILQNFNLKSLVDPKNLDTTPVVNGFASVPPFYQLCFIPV

[3] = target: Beta-3 adrenergic receptor (Homo sapiens, UniProt P13945); assay: DRUGMATRIX: Adrenergic beta3 radioligand binding (ligand: [125I] Cyanopindolol); format: cell membranes, HEK293, Membrane; conditions: hek293; Not Active = under 50% inhibition at 10 µM
Sequence of Beta-3 adrenergic receptor (P13945 whole entry): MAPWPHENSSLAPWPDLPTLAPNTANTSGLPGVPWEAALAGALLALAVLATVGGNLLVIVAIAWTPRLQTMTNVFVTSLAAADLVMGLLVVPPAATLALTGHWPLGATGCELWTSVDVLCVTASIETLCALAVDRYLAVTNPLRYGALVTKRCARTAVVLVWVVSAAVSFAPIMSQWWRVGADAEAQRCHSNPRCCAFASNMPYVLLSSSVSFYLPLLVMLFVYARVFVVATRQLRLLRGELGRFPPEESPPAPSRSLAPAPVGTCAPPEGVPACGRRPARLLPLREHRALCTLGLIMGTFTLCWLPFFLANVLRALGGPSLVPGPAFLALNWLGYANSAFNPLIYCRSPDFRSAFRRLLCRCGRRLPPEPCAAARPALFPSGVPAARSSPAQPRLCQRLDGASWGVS

[4] = DRUGMATRIX: Purinergic P2X radioligand binding (ligand: [3H] alpha, beta-Methylene-ATP); format: cell membranes, Oryctolagus cuniculus, New Zealand albino, Urinary bladder, Membrane; conditions: Not Active = under 50% inhibition at 10 µM
[5] = target: C-C chemokine receptor type 5 (Homo sapiens, UniProt P51681); format: cell membranes, Membrane; conditions: hek293; note: in other assays of this panel Not Active means under 50% inhibition at 10 µM
Sequence of C-C chemokine receptor type 5 (P51681 whole entry): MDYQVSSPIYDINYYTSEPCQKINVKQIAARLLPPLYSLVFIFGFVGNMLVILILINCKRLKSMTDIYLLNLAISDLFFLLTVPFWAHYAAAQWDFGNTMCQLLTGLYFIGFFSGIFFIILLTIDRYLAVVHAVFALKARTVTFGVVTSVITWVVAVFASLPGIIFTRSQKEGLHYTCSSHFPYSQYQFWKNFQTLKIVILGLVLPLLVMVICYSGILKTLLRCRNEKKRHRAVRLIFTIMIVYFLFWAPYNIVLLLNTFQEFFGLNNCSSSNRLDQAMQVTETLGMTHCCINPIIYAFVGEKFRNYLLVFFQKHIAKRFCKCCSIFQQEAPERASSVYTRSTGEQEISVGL

[6] = target: T3, Amine oxidase [flavin-containing] A (Homo sapiens, UniProt P21397); assay: DRUGMATRIX: Monoamine Oxidase MAO-A enzyme inhibition (substrate: Kynuramine); design: species or system BTI-TN-5B1-4; conditions: bti-tn-5b1-4; Not Active = under 50% inhibition at 10 µM
T3 sequence (P21397 whole entry): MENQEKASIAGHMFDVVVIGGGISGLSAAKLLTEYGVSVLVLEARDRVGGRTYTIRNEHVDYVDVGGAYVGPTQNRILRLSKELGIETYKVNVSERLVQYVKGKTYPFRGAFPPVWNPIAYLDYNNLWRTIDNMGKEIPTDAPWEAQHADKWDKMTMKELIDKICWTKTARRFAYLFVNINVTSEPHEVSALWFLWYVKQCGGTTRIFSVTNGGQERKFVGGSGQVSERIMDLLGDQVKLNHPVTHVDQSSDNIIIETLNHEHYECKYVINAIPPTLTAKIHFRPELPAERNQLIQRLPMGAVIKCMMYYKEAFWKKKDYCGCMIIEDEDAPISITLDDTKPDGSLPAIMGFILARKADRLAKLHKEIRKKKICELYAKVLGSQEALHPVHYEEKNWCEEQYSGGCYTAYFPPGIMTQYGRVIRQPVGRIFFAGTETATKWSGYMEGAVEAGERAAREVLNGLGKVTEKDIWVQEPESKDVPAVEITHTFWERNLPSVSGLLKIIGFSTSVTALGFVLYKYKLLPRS

CC(C)CN(C[C@@H](O)[C@H](Cc1ccccc1)NC(=O)O[C@H]1CCOC1)S(=O)(=O)c1ccc(N)cc1
Not Active: IC50 [1] | IC50 [2] | IC50 (Cytochrome P450 2C9) | Ki (Cytochrome P450 2C9) | IC50 [3] | IC50 [4] | Ki [4] | IC50 [5] | IC50 [6]

c1ccc(Nc2ccc(Nc3ccccc3)cc2)cc1
Not Active: IC50 [1] | IC50 [2] | IC50 (Cytochrome P450 2C9) | Ki (Cytochrome P450 2C9) | IC50 [3] | IC50 [4] | Ki [4] | IC50 [5] | IC50 [6]

COc1cc2c3cc1Oc1cc(ccc1O)C[C@@H]1c4c(cc(OC)c(O)c4Oc4ccc(cc4)C[C@@H]3N(C)CC2)CC[N+]1(C)C.[Cl-]
Not Active: IC50 [1] | IC50 [2] | IC50 (Cytochrome P450 2C9) | Ki (Cytochrome P450 2C9) | IC50 [3] | IC50 [4] | Ki [4] | IC50 [5] | IC50 [6]

NC(=O)N1c2ccccc2CCc2ccccc21
Not Active: IC50 [1] | IC50 [2] | IC50 (Cytochrome P450 2C9) | Ki (Cytochrome P450 2C9) | IC50 [3] | IC50 [4] | Ki [4] | IC50 [5] | IC50 [6]

O=C1CC[C@@H](N2C(=O)c3ccccc3C2=O)C(=O)N1
Not Active: IC50 [1] | IC50 [2] | IC50 (Cytochrome P450 2C9) | Ki (Cytochrome P450 2C9) | IC50 [3] | IC50 [4] | Ki [4] | IC50 [5] | IC50 [6]

Cc1onc(O)c1CC(N)C(=O)O (racemic) [(R,S)-AMPA]
Not Active: IC50 [1] | IC50 [2] | IC50 (Cytochrome P450 2C9) | Ki (Cytochrome P450 2C9) | IC50 [3] | IC50 [4] | Ki [4] | IC50 [5] | IC50 [6]

Cc1ccc2cc3c(ccc4ccccc43)c3c2c1CC3 [3-METHYLCHOLANTHRENE]
Not Active: IC50 [1] | IC50 [2] | IC50 (Cytochrome P450 2C9) | Ki (Cytochrome P450 2C9) | IC50 [3] | IC50 [4] | Ki [4] | IC50 [5] | IC50 [6]

CC[C@@]1(O)C[C@H](O[C@H]2C[C@H](N(C)C)[C@H](O[C@H]3C[C@H](O)[C@H](O[C@H]4CCC(=O)[C@H](C)O4)[C@H](C)O3)[C@H](C)O2)c2c(cc3c(c2O)C(=O)c2c(O)cccc2C3=O)[C@H]1C(=O)OC [ACLARUBICIN]
Not Active: IC50 [1] | IC50 [2] | IC50 (Cytochrome P450 2C9) | Ki (Cytochrome P450 2C9) | IC50 [3] | IC50 [4] | Ki [4] | IC50 [5] | IC50 [6]

Nc1nc2c(ncn2COCCO)c(=O)[nH]1 [ACYCLOVIR]
Not Active: IC50 [1] | IC50 [2] | IC50 (Cytochrome P450 2C9) | Ki (Cytochrome P450 2C9) | IC50 [3] | IC50 [4] | Ki [4] | IC50 [5] | IC50 [6]

CN(C)c1nc(N(C)C)nc(N(C)C)n1 [ALTRETAMINE]
Not Active: IC50 [1] | IC50 [2] | IC50 [3] | IC50 [4] | Ki [4] | IC50 [5] | IC50 [6]

Nc1c(Br)cc(Br)cc1CN[C@H]1CC[C@H](O)CC1 [AMBROXOL]
Not Active: IC50 [1] | IC50 [2] | IC50 [3] | IC50 [4] | Ki [4] | IC50 [5] | IC50 [6]

CN(C)CCCN1c2ccccc2Sc2ccc(Cl)cc21 [CHLORPROMAZINE]
Not Active: IC50 [3] | IC50 [4] | Ki [4] | IC50 [5] | IC50 [6]
